Experiment [1] deals with T1, GST-tagged p300 CH1 domain (AAs 302-423) / HIF1α (AAs 788-826) (Homo sapiens, UniProt Q09472).
T1 construct: GST-tagged p300 CH1 domain (AAs 302-423)
The experiment in a line: Biolayer interferometry competition for binding to p300 CH1 domain. The note with it: 300 nM p300 CH1. Here is the method:
Biolayer inferometry (ForteBio, Menlo Park Calif.) was used to measure competition of SP-6 for HIF1α (AAs 788-826). Biotinylated HIF1α peptide was captured on […] biosensor tip. The association of 300 nM GST-tagged p300 CH1 domain (AAs 302-423) in the presence or absence of varying concentrations of SP-6 was measured for 240 s. Dissociation was monitored for a minimum of 200 s in the absence of free p300 or stapled peptide. Binding of p300 to biosensor immobilized HIF1α target was analyzed with instrument software and total response (R) was proportional to binding.
Inhibition of p300 binding was calculated as % inhibition=[…]. A concentration of 10 μM SP-6 blocked 99% of the total binding. The inhibition was dose-dependent, with 2 μM inhibiting 50% of p300/HIF1α binding.
Background: Biolayer interferometry detects binding as a change in optical thickness at a sensor tip.

Experiment [2] concerns the target T2, His6-tagged p300 (AA 323-423) (UniProt Q09472 323-423).
T2 construct: range 323-423; also called p300-CH; not shown: His6 tag
Description: TR-FRET HIF1a/p300 displacement; grade = IC50 <=200 nM. Here is the method: The ability of peptides to displace HIF1α c-terminal trans-activation domain from p300-CH was measured by a TR FRET assay. […] The complex was diluted to 300 nM final in complete assay media and competitor peptides were added. The complete assay media contained 150 mM NaCl (Sigma +S5150 or equivalent), 20 mM HEPES pH 7.4 (Boston Bioproducts, Ashland, Mass.; #BB-2076), 7.5 mM CHAPS (Thermo #28300 or equivalent), and 1 mM DTT. Protein and peptide were incubated at room temperature for 1 hour before the addition of anti-Flag-K and anti-6×HIS-D2 (CisBio, Bedford Mass.) HTRF reconstitution buffer (50 mM Phosphate pH 7, 0.8 Potassium Flouride, BSA 0.2%)¹ to a final concentration of 0.5 μM and 4 nM respectively. The reaction continued for an additional two hours at room temperature. The reaction was read on a TECAN F500 plate reader with settings recommended by CisBio. The ratio of donor to acceptor fluorescence was calculated. The resulting data was analyzed with Graphpad Prism 5.0. IC50 values were calculated for both proteins using the One Site Fit-LogIC50 equation and presented in the column “IC₅₀ (nM) (HIF1α_p300 Displacement+CHAPS)” of Table 6. ¹ Cisbio USA, Bedford, Mass.; 61HISDLB (lot 007A), 61FG2KLB (024A), HTRF Buffer (62RB3RDF)
For orientation: In TR-FRET formats the signal depends on donor and acceptor labels being close together.

In experiment [3] the target is T3, GST-tagged p300 CH1 domain (AAs 302-423) (UniProt Q09472 302-423).
T3 construct: range 302-423; not shown: GST tag
T3 sequence (Q09472 302-423 limits assumed): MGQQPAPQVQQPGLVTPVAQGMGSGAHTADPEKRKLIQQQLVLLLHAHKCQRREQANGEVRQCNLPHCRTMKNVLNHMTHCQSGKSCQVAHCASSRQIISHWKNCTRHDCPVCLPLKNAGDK
Description: BLI competition, 300 nM GST-p300 CH1 on immobilised HIF1α 788-826. The procedure: Biotinylated HIF1α peptide was captured on Ni-NTA biosensor tip. The association of 300 nM GST-tagged p300 CH1 domain (AAs 302-423) in the presence or absence of varying concentrations of SP-6 was measured for 240 s. Dissociation was monitored for a minimum of 200 s in the absence of free p300 or stapled peptide. Binding of p300 to biosensor immobilized HIF1α target was analyzed with instrument software and total response (R) was proportional to binding.
A concentration of 10 μM SP-6 blocked 99% of the total binding. The inhibition was dose-dependent, with 2 μM inhibiting 50% of p300/HIF1α binding.

Bridge positions count the residues as written; N and C are the ends. Square brackets hold non-standard residues; d marks the D form. Peptide text beside a SMILES is read from it. S5 = C=CCCC[C@](C)(N)C(=O)O; Nle = CCCC[C@H](N)C(=O)O

T1 sequence (Q09472 302-423): as the sequence (Q09472 302-423 limits assumed) above
T2 sequence (Q09472 323-423 limits assumed): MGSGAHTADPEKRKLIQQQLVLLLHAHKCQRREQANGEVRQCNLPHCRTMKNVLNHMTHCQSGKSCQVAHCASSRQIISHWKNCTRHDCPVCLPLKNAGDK

In general, inhibition refers to the percentage by which the read-out fell short of the control. The low end stands for a response near the control, the high end for a response far below the control. In the case of `CCCC[C@H](NC(=O)[C@H](CC(C)C)NC(=O)[C@@H](NC(=O)[C@H](CCC(=O)O)NC(=O)[C@H](CCC(=O)O)NC(=O)[C@H](CC(=O)O)NC(=O)[C@@H](NC(=O)[C@H](Cc1ccccc1)NC(C)=O)[C@@H](C)CC)C(C)C)C(=O)N[C@@]1(C)CCCC=CCCC[C@@](C)(C(=O)N[C@@H](CCCC)C(=O)N[C@@H](C)C(=O)N[C@@H](CC(C)C)C(=O)N[C@@H](CC(=O)O)C(=O)N[C@@H](CCCNC(=N)N)C(=O)N[C@H](C(N)=O)[C@@H](C)CC)NC(=O)[C@H]([C@@H](C)CC)NC(=O)[C@H](C(C)C)NC(=O)[C@H](CC(C)C)NC1=O` [SP-6] (Ac-FIDEEVL[Nle][S5]LVI[S5][Nle]ALDRI-NH2; staple 9-13), 2 µM produced 50% inhibition in experiment [1] (2 μM). In experiment [1] (10 μM), 10 µM produced 99% inhibition.

B1: SP-6 (peptide)
peptide: Ac-FIDEEVL[Nle][S5]LVI[S5][Nle]ALDRI-NH2
modifications: staple 9-13
SMILES: CCCC[C@H](NC(=O)[C@H](CC(C)C)NC(=O)[C@@H](NC(=O)[C@H](CCC(=O)O)NC(=O)[C@H](CCC(=O)O)NC(=O)[C@H](CC(=O)O)NC(=O)[C@@H](NC(=O)[C@H](Cc1ccccc1)NC(C)=O)[C@@H](C)CC)C(C)C)C(=O)N[C@@]1(C)CCCC=CCCC[C@@](C)(C(=O)N[C@@H](CCCC)C(=O)N[C@@H](C)C(=O)N[C@@H](CC(C)C)C(=O)N[C@@H](CC(=O)O)C(=O)N[C@@H](CCCNC(=N)N)C(=O)N[C@H](C(N)=O)[C@@H](C)CC)NC(=O)[C@H]([C@@H](C)CC)NC(=O)[C@H](C(C)C)NC(=O)[C@H](CC(C)C)NC1=O
Broadly, the IC50 is the point on the concentration scale where inhibition reaches its midpoint. A high value points to weaker potency. For the molecule B1, the IC50 is not above 0.2 µM in experiment [2] and 2 µM in experiment [3].

The record behind these values is patent US20190225650A1, “PEPTIDOMIMETIC MACROCYCLES AND USE THEREOF IN REGULATING HIF1ALPHA” (AILERON THERAPEUTICS, INC., priority 2013, published 2019).
